Consider 10 compounds from BindingDB's records for doi:10.1021/jm00007a020 (Eastern Michigan University, 1995).

The experiment is described as follows: Inhibition of [3H]- DPDPE binding to delta opioid receptor of guinea pig brain.

Square brackets hold non-standard residues; d marks the D form. Peptide text beside a SMILES is read from it. Ala(4-thiazolyl) = N[C@@H](Cc1cscn1)C(=O)O; 2Pal = N[C@@H](Cc1ccccn1)C(=O)O; 3Pal = N[C@@H](Cc1cccnc1)C(=O)O; 2Thi = N[C@@H](Cc1cccs1)C(=O)O

For orientation: Ki means the dissociation constant of the complex between target and ligand, obtained from inhibition or displacement.

On to `Cc1ccc(C[C@H](NC(=O)[C@H](C)NC(=O)[C@@H](N)Cc2ccc(O)cc2)C(=O)N[C@@H](CC(=O)O)C(=O)N[C@H](C(=O)N[C@H](C(=O)NCC(N)=O)C(C)C)C(C)C)cc1` [(S)-3-((S)-2-{(S)-2-[(S)-2-Amino-3-(4-hydroxy-phenyl)-propionylamino]-propionylamino}-3-p-tolyl-propionylamino)-N-{(S)-1-[(S)-1-(carbamoylmethyl-carbamoyl)-2-methyl-propylcarbamoyl]-2-methyl-propyl}-succinamic acid], for which the Ki was 2.65 µM.
For the compound “H-YAHDVVG-NH2 [(S)-3-[(S)-2-{(S)-2-[(S)-2-Amino-3-(4-hydroxy-phenyl)-propionylamino]-propionylamino}-3-(3H-imidazol-4-yl)-propionylamino]-N-{(S)-1-[(S)-1-(carbamoylmethyl-carbamoyl)-2-methyl-propylcarbamoyl]-2-methyl-propyl}-succinamic acid]”, affinity was put at a Ki of 0.317 µM.
In the case of `Cc1c(C)c(C)c(C[C@H](NC(=O)[C@H](C)NC(=O)[C@@H](N)Cc2ccc(O)cc2)C(=O)N[C@@H](CC(=O)O)C(=O)N[C@H](C(=O)N[C@H](C(=O)NCC(N)=O)C(C)C)C(C)C)c(C)c1C` [(S)-3-((S)-2-{(S)-2-[(S)-2-Amino-3-(4-hydroxy-phenyl)-propionylamino]-propionylamino}-3-pentamethylphenyl-propionylamino)-N-{(S)-1-[(S)-1-(carbamoylmethyl-carbamoyl)-2-methyl-propylcarbamoyl]-2-methyl-propyl}-succinamic acid], the Ki was 10 µM.
Regarding `CC(C)[C@H](NC(=O)[C@H](CC(=O)O)NC(=O)[C@H](Cc1cccs1)NC(=O)[C@H](C)NC(=O)[C@@H](N)Cc1ccc(O)cc1)C(=O)N[C@H](C(=O)NCC(N)=O)C(C)C` [(S)-3-((S)-2-{(S)-2-[(S)-2-Amino-3-(4-hydroxy-phenyl)-propionylamino]-propionylamino}-3-thiophen-2-yl-propionylamino)-N-{(S)-1-[(S)-1-(carbamoylmethyl-carbamoyl)-2-methyl-propylcarbamoyl]-2-methyl-propyl}-succinamic acid] (H-YA[2Thi]DVVG-NH2), the inhibition constant Ki was determined as 0.0014 µM.
The value for `CC(C)[C@H](NC(=O)[C@H](CC(=O)O)NC(=O)[C@H](Cc1cccnc1)NC(=O)[C@H](C)NC(=O)[C@@H](N)Cc1ccc(O)cc1)C(=O)N[C@H](C(=O)NCC(N)=O)C(C)C` [(S)-3-((S)-2-{(S)-2-[(S)-2-Amino-3-(4-hydroxy-phenyl)-propionylamino]-propionylamino}-3-pyridin-3-yl-propionylamino)-N-{(S)-1-[(S)-1-(carbamoylmethyl-carbamoyl)-2-methyl-propylcarbamoyl]-2-methyl-propyl}-succinamic acid] (H-YA[3Pal]DVVG-NH2) was 0.05 µM; that for `CC(C)[C@H](NC(=O)[C@H](CC(=O)O)NC(=O)[C@H](Cc1ccccn1)NC(=O)[C@H](C)NC(=O)[C@@H](N)Cc1ccc(O)cc1)C(=O)N[C@H](C(=O)NCC(N)=O)C(C)C` [(S)-3-((S)-2-{(S)-2-[(S)-2-Amino-3-(4-hydroxy-phenyl)-propionylamino]-propionylamino}-3-pyridin-2-yl-propionylamino)-N-{(S)-1-[(S)-1-(carbamoylmethyl-carbamoyl)-2-methyl-propylcarbamoyl]-2-methyl-propyl}-succinamic acid] (H-YA[2Pal]DVVG-NH2) was 0.062 µM; that for `CC(C)[C@H](NC(=O)[C@H](CC(=O)O)NC(=O)[C@H](Cc1cccc(F)c1)NC(=O)[C@H](C)NC(=O)[C@@H](N)Cc1ccc(O)cc1)C(=O)N[C@H](C(=O)NCC(N)=O)C(C)C` [(S)-3-[(S)-2-{(S)-2-[(S)-2-Amino-3-(4-hydroxy-phenyl)-propionylamino]-propionylamino}-3-(3-fluoro-phenyl)-propionylamino]-N-{(S)-1-[(S)-1-(carbamoylmethyl-carbamoyl)-2-methyl-propylcarbamoyl]-2-methyl-propyl}-succinamic acid] was 0.0736 µM.
Next, `CC(C)[C@H](NC(=O)[C@H](CC(=O)O)NC(=O)[C@H](Cc1cscn1)NC(=O)[C@H](C)NC(=O)[C@@H](N)Cc1ccc(O)cc1)C(=O)N[C@H](C(=O)NCC(N)=O)C(C)C` [(S)-3-((S)-2-{(S)-2-[(S)-2-Amino-3-(4-hydroxy-phenyl)-propionylamino]-propionylamino}-3-thiazol-4-yl-propionylamino)-N-{(S)-1-[(S)-1-(carbamoylmethyl-carbamoyl)-2-methyl-propylcarbamoyl]-2-methyl-propyl}-succinamic acid] (H-YA[Ala(4-thiazolyl)]DVVG-NH2): 0.04 µM.
The compound `CC(C)[C@H](NC(=O)[C@H](CC(=O)O)NC(=O)[C@H](Cc1c(F)c(F)c(F)c(F)c1F)NC(=O)[C@H](C)NC(=O)[C@@H](N)Cc1ccc(O)cc1)C(=O)N[C@H](C(=O)NCC(N)=O)C(C)C` [(S)-3-((S)-2-{(S)-2-[(S)-2-Amino-3-(4-hydroxy-phenyl)-propionylamino]-propionylamino}-3-pentafluorophenyl-propionylamino)-N-{(S)-1-[(S)-1-(carbamoylmethyl-carbamoyl)-2-methyl-propylcarbamoyl]-2-methyl-propyl}-succinamic acid] had a Ki of 0.135 µM.
The value for `CC(C)[C@H](NC(=O)[C@H](CC(=O)O)NC(=O)[C@H](Cc1ccc(F)cc1)NC(=O)[C@H](C)NC(=O)[C@@H](N)Cc1ccc(O)cc1)C(=O)N[C@H](C(=O)NCC(N)=O)C(C)C` [(S)-3-[(S)-2-{(S)-2-[(S)-2-Amino-3-(4-hydroxy-phenyl)-propionylamino]-propionylamino}-3-(4-fluoro-phenyl)-propionylamino]-N-{(S)-1-[(S)-1-(carbamoylmethyl-carbamoyl)-2-methyl-propylcarbamoyl]-2-methyl-propyl}-succinamic acid] was 0.703 µM.
